In patent publication US11130741B2 (Bioimics AB, priority 2016, dated 2021):
In brackets after ≈: the same amount, converted by molar mass.

What was measured:
[1] = test system: E. coli RNase P RNA, M1 RNA; experiment: Inhibition of bacterial RNase P activity, IC50 determination (cleavage of pATSerUG by M1 RNA); format: biochemical; conditions: NI = No inhibition
[2] = test system: Escherichia coli (ATCC25922); experiment: MIC, broth microdilution (CLSI), Escherichia coli ATCC25922; conditions: ATCC25922, read-out: E. coli MIC, Table 15, NI = No inhibition
[3] = test system: Staphylococcus aureus (ATCC25923); experiment: MIC, broth microdilution (CLSI), Staphylococcus aureus ATCC25923; conditions: ATCC25923, read-out: S. aureus ("Clinical") MIC

Compound | IC50 [1] [µM] | MIC [2] [µg/mL] | MIC [3] [µg/mL]
O=C(CCN1CCNCC1)Nc1cc(C(F)(F)F)cc2c1Nc1ccccc1S2 [compound 101, 3-(piperazin-1-yl)-N-(3-(trifluoromethyl)-10H-phenothiazin-1-yl)propanamide] | > 100 | 64 (≈ 151 µM) | 32 (≈ 75.7 µM)
Nc1cc(C(F)(F)F)cc2c1N(CCCN1CCNCC1)c1ccccc1S2 [compound 83, 10-(3-(piperazin-1-yl)propyl)-3-(trifluoromethyl)-10H-phenothiazin-1-amine] | > 100 | > 100 | 32 (≈ 78.3 µM)
CN(C)CCCN1c2ccccc2Sc2cc(-c3ccc4[nH]cnc4c3)ccc21 [compound 117, 3-(3-(1H-benzo[d]imidazol-5-yl)-10H-phenothiazin-10-yl)-N,N-dimethylpropan-1-amine] | > 100 | > 100 | 26 (≈ 64.9 µM)
CN(C)CCCN1c2ccccc2Sc2cc(-c3nc4ccccc4s3)ccc21 [compound 143, 3-(3-(Benzo[d]thiazol-2-yl)-10H-phenothiazin-10-yl)-N,N-dimethylpropan-1-amine] | > 100 | > 100 | 3 (≈ 7.18 µM)
N[C@H]1CCC[C@H](CNc2cc(C(F)(F)F)cc3c2Nc2ccccc2S3)C1.O=C(O)C(F)(F)F [compound 187, N-(((1S,3S)-3-aminocyclohexyl)methyl)-3-(trifluoromethyl)-10H-phenothiazin-1-amine 2,2,2-trifluoroacetate] | 53 | 16 | 4
CN(C)CCCN1c2ccc(Cl)cc2Sc2cccnc21 [compound 126, 3-(7-chloro-10H-benzo[b]pyrido [2,3-e][1,4]thiazin-10-yl)-N,N-dimethyl-propan-1-amine] | > 100 | > 100 | 82 (≈ 256 µM)
CN(C)CCCN1c2ccccc2Sc2cc(C(F)(F)F)cc(NC(N)=S)c21 [compound 87, 1-(10-(3-(Dimethylamino)propyl)-3-(trifluoromethyl)-10H-phenothiazin-1-yl)thiourea] | > 100 | > 100 | 55 (≈ 129 µM)
NCCNC(=S)Nc1cc(C(F)(F)F)cc2c1Nc1ccccc1S2 [compound 98, 1-(2-aminoethyl)-3-(3-(trifluoro-methyl)-10H-phenothiazin-1-yl)thiourea] | > 100 | 16 (≈ 41.6 µM) | 8 (≈ 20.8 µM)
NCC1CCCC(C(=O)Nc2cc(C(F)(F)F)cc3c2Nc2ccccc2S3)C1 (stereo not drawn) [compound 149, 3-(aminomethyl)-N-(3-(trifluoromethyl)-10H-phenothiazin-1-yl)cyclohexane-carboxamide] | 15 | 54 (≈ 128 µM) | 13 (≈ 30.8 µM)
O=C(Nc1cc(C(F)(F)F)cc2c1Nc1ccccc1S2)[C@H]1CCCNC1 [compound 106, N-(3-(trifluoromethyl)-10H-phenothiazin-1-yl)piperidine-3-carboxamide] | > 100 | 64 (≈ 163 µM) | 32 (≈ 81.3 µM)
O=C(Nc1cc(C(F)(F)F)cc2c1Nc1ccccc1S2)[C@@H]1CCCNC1 [compound 100, (R)-N-(3-(trifluoromethyl)-10H-phenothiazin-1-yl)piperidine-3-carboxamide] | > 100 | 32 (≈ 81.3 µM) | 16 (≈ 40.7 µM)
NCCN1CCC(Nc2cc(C(F)(F)F)cc3c2Nc2ccc(CN)cc2S3)CC1.O=C(O)C(F)(F)F.O=C(O)C(F)(F)F [compound 227, N-(1-(2-Aminoethyl)piperidin-4-yl)-7-(aminomethyl)-3-(trifluoromethyl)-10H-phenothiazin-1-amine bis(2,2,2-trifluoroacetate)] | 7 | 43 | 5
N[C@@H]1CCC[C@H](C(=O)Nc2cc(C(F)(F)F)cc3c2Nc2ccccc2S3)C1 [compound 125, (1S,3R)-3-amino-N-(3-(trifluoromethyl)-10H-phenothiazin-1-yl)cyclohexane-carboxamide] | 20 | 26 (≈ 63.8 µM) | 13 (≈ 31.9 µM)
NC1CCCC(C(=O)Nc2cc(C(F)(F)F)cc3c2Nc2ccccc2O3)C1 (stereo not drawn) [compound 156, 3-amino-N-(3-(trifluoromethyl)-10H-phenoxazin-1-yl)cyclohexane-carboxamide] | > 100 | 25 (≈ 63.9 µM) | 13 (≈ 33.2 µM)
NC[C@H]1CC[C@H](C(=O)Nc2cc(C(F)(F)F)cc3c2Nc2ccccc2S3)CC1 [compound 120, (1R,4R)-4-(aminomethyl)-N-(3-(trifluoromethyl)-10H-phenothiazin-1-yl)cyclohexane-carboxamide] | 12 | > 100 | 27 (≈ 64.1 µM)
CNCCN1CCC(Nc2cc(CN)cc3c2Nc2ccccc2S3)CC1.O=C(O)C(F)(F)F [compound 224, 3-(aminomethyl)-N-(1-(2-(methylamino)ethyl)piperidin-4-yl)-10H-phenothiazin-1-amine 2,2,2-trifluoroacetate salt] | 68 | 64 | 64
O=C(CC1CCC(F)(F)CC1)Nc1cc(C(F)(F)F)cc2c1Nc1ccccc1S2 [compound 132, 2-(4,4-difluorocyclo-hexyl)-N-(3-(trifluoromethyl)-10H-phenothiazin-1-yl)acetamide] | > 100 | > 100 | 4 (≈ 9.04 µM)
O=C(Nc1cc(C(F)(F)F)cc2c1Nc1ccccc1S2)C1CCCC(O)C1 (stereo not drawn) [compound 148, 3-hydroxy-N-(3-(trifluoromethyl)-10H-phenothiazin-1-yl)cyclohexane-carboxamide] | > 100 | > 100 | 26 (≈ 63.7 µM)
NC1CCCC(C(=O)Nc2cc(C(F)(F)F)cc3c2Nc2cc(F)ccc2S3)C1.O=C(O)C(F)(F)F (stereo not drawn) [compound 124, 3-Amino-N-(8-fluoro-3-(trifluoromethyl)-10H-phenothiazin-1-yl)cyclohexane carboxamide. TFA Salt] | 59 | 35 | 17

The next lines start with the values.

IC50 [1] [µM] | MIC [2] [µg/mL] | MIC [3] [µg/mL] | Compound
> 100 | 52 (≈ 127 µM) | 26 (≈ 63.7 µM) | NCCN1CC(C(=O)Nc2cc(C(F)(F)F)cc3c2Nc2ccccc2S3)C1 [compound 196]
80 | 49 (≈ 129 µM) | 24 (≈ 63.3 µM) | NC1CC(C(=O)Nc2cc(C(F)(F)F)cc3c2Nc2ccccc2S3)C1 (stereo not drawn) [compound 175, 3-amino-N-(3-(trifluoromethyl)-10H-phenothiazin-1-yl)cyclobutane-carboxamide]
29 | 24 (≈ 63.9 µM) | 6 (≈ 16 µM) | FC(F)(F)c1cc2c3c(c1)nc(C1CCNCC1)n3-c1ccccc1S2 [compound 232, 1-(piperidin-4-yl)-4-(trifluoromethyl) imidazo[4,5,1-kl]phenothiazine]
68 | 96 (≈ 257 µM) | 24 (≈ 64.2 µM) | NC1CCCC(C(=O)Nc2cc(Cl)cc3c2Nc2ccccc2S3)C1 (stereo not drawn) [compound 161, 3-amino-N-(3-chloro-10H-phenothiazin-1-yl)cyclohexane-carboxamide]
59 | > 100 | 24 (≈ 63.2 µM) | FC(F)(F)c1cc(NCC2CCNCC2)c2c(c1)Sc1ccccc1N2 [compound 173, N-(piperidin-4-ylmethyl)-3-(trifluoromethyl)-10H-phenothiazin-1-amine]
59 | 7 (≈ 16.6 µM) | 3 (≈ 7.1 µM) | NC1CC(N)CC(C(=O)Nc2cc(C(F)(F)F)cc3c2Nc2ccccc2S3)C1 (stereo not drawn) [compound 170, 3,5-diamino-N-(3-(trifluoromethyl)-10H-phenothiazin-1-yl)cyclohexane-carboxamide]
9 | 26 (≈ 63.6 µM) | 7 (≈ 17.1 µM) | NCCN1CCC(Nc2cc3c(c(C(F)(F)F)c2)Nc2ccccc2S3)CC1 [compound 252, N-(1-(2-aminoethyl)piperidin-4-yl)-1-(trifluoromethyl)-10H-phenothiazin-3-amine]
62 | > 100 | 23 (≈ 62.9 µM) | FC(F)(F)c1cc(NC2CCNCC2)cc2c1Nc1ccccc1S2 [compound 240, N-(piperidin-4-yl)-1-(trifluoromethyl)-10H-phenothiazin-3-amine]
72 | 14 (≈ 31.1 µM) | 14 (≈ 31.1 µM) | NCCNC1CCCC(C(=O)Nc2cc(C(F)(F)F)cc3c2Nc2ccccc2S3)C1 (stereo not drawn) [compound 163, 3-((2-aminoethyl)amino)-N-(3-(trifluoromethyl)-10H-phenothiazin-1-yl)cyclohexane-carboxamide]
61 | 25 (≈ 63.5 µM) | 3 (≈ 7.62 µM) | N[C@H]1CCC[C@@H](CNc2cc(C(F)(F)F)cc3c2Nc2ccccc2S3)C1 [compound 182, N-(((1R,3S)-3-aminocyclohexyl)methyl)-3-(trifluoromethyl)-10H-phenothiazin-1-amine]
50 | > 100 | 30 (≈ 64.6 µM) | NCCCNC1CCCC(C(=O)Nc2cc(C(F)(F)F)cc3c2Nc2ccccc2S3)C1 (stereo not drawn) [compound 162, 3-((3-aminopropyl)amino)-N-(3-(trifluoromethyl)-10H-phenothiazin-1-yl)cyclohexane-carboxamide]
36 | 45 (≈ 129 µM) | 11 (≈ 31.5 µM) | FC(F)(F)c1cc(NC2CCNCC2)c2c(c1)Oc1ccccc1N2 [compound 169, N-(piperidin-4-yl)-3-(trifluoromethyl)-10H-phenoxazin-1-amine]
> 100 | 27 (≈ 63 µM) | 7 (≈ 16.3 µM) | CN(C)CCCN1c2ccccc2Sc2cc(-c3cc4cc(CN)ccc4[nH]3)ccc21 [compound 181, 3-(3-(5-(aminomethyl)-1H-indol-2-yl)-10H-phenothiazin-10-yl)-N,N-dimethylpropan-1-amine]
180 | 22 (≈ 65.2 µM) | 5 (≈ 14.8 µM) | FC(F)(F)c1cc(NC2CNC2)c2c(c1)Sc1ccccc1N2 [compound 193, N-(azetidin-3-yl)-3-(trifluoromethyl)-10H-phenothiazin-1-amine]
> 100 | 24 (≈ 64 µM) | 12 (≈ 32 µM) | NCCN1CCC(Nc2cc(Cl)cc3c2Nc2ccccc2S3)CC1 [compound 214, N-(1-(2-aminoethyl)piperidin-4-yl)-3-chloro-10H-phenothiazin-1-amine]
